According to patent US11613527B2, “Enzyme inhibitors” (KalVista Pharmaceuticals Limited, priority 2019, dated 2023):

Tests used:
Type in all cases: biochemical
Human FXIa = Human FXIa (Homo sapiens (Human), UniProt P03951); experiment: Determination of the % inhibition for FXIa (fluorogenic substrate Z-Gly-Pro-Arg-AFC; 40 μM or IC50)
Description: Selected compounds were further screened for inhibitory activity against the related enzyme FXIa. The ability of the compounds of formula (I) to inhibit FXIa may be determined using the following biological assay:
Determination of the % Inhibition for FXIa
(§1) FXIa inhibitory activity in vitro was determined using standard published methods (see e.g. Johansen et al., Int. J. Tiss. Reac. 1986, 8, 185; Shori et al., Biochem. Pharmacol., 1992, 43, 1209; Sturzebecher et al., Biol. Chem. Hoppe-Seyler, 1992, 373, 1025). Human FXIa (Enzyme Research Laboratories) was incubated at 25° C. with the fluorogenic substrate Z-Gly-Pro-Arg-AFC and 40 μM of the test compound (or alternatively at various concentrations of the test compound in order to determine IC50). Residual enzyme activity (initial rate of reaction) was determined by measuring the change in optical absorbance at 410 nm and the IC50 value for the test compound was determined.

Human KLK1 = Human KLK1 (Homo sapiens (Human), UniProt P06870); experiment: Determination of the IC50 for KLK1 (fluorogenic substrate H-DVal-Leu-Arg-AFC)
Human KLK1, sequence (P06870 25-262): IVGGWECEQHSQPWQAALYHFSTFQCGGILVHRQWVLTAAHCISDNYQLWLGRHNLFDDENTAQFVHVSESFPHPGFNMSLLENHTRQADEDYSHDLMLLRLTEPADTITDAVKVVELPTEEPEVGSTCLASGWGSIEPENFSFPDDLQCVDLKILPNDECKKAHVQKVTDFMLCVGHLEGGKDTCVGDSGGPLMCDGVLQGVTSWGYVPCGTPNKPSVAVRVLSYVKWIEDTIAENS
Description: Selected compounds were further screened for inhibitory activity against the related enzyme KLK1. The ability of the compounds of formula (I) to inhibit KLK1 may be determined using the following biological assay:
Determination of the IC50 for KLK1
as §1, with “KLK1” for “FXIa”, “KLK1 (Callbiochem)” for “FXIa (Enzyme Research Laboratories)”, “H-DVal-Leu-Arg-AFC” for “Z-Gly-Pro-Arg-AFC”, “and” for “and 40 μM of the test compound (or alternatively at”, “compound.” for “compound in order to determine IC50).”

Human plasma kallikrein = Human plasma kallikrein (Homo sapiens (Human), UniProt P03952); experiment: Determination of the IC50 for plasma kallikrein (fluorogenic substrate H-DPro-Phe-Arg-AFC); conditions: class symbols A-D, read-out: IC50 (human PKal)
Human plasma kallikrein, sequence (P03952 391-638): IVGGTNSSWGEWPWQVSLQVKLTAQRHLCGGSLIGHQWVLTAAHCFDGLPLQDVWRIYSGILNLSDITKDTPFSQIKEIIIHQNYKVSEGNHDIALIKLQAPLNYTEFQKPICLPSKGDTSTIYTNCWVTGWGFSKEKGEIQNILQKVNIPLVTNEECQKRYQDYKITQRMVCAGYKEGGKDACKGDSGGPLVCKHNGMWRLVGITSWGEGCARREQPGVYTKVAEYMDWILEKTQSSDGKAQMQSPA
Human plasma kallikrein, sequence (P03952 20-390 partner): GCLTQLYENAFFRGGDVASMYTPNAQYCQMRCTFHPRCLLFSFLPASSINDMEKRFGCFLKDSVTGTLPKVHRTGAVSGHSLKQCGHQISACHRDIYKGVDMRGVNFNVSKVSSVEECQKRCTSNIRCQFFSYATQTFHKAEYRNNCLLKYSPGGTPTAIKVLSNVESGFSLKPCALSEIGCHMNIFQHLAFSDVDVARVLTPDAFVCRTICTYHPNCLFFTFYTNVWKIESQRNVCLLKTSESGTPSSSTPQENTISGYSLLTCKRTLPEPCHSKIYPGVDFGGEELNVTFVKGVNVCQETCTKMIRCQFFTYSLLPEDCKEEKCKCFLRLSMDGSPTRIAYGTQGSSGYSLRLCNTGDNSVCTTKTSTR
Description: The ability of the compounds of formula (I) to inhibit plasma kallikrein may be determined using the following biological assay:
Determination of the IC50 for Plasma Kallikrein
as §1, with “Plasma kallikrein” for “FXIa”, “plasma kallikrein (Protogen)” for “FXIa (Enzyme Research Laboratories)”, “H-DPro-Phe-Arg-AFC” for “Z-Gly-Pro-Arg-AFC”, “and” for “and 40 μM of the test compound (or alternatively at”, “compound.” for “compound in order to determine IC50).”

Human FXIa, sequence (P03951 388-625): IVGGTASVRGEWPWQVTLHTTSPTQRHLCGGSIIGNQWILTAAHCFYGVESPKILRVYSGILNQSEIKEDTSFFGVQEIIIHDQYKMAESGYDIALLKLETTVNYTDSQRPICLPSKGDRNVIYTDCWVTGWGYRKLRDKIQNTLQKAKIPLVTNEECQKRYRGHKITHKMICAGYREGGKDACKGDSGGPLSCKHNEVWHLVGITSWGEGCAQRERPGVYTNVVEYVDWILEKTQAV
Human FXIa, sequence (P03951 19-387 partner): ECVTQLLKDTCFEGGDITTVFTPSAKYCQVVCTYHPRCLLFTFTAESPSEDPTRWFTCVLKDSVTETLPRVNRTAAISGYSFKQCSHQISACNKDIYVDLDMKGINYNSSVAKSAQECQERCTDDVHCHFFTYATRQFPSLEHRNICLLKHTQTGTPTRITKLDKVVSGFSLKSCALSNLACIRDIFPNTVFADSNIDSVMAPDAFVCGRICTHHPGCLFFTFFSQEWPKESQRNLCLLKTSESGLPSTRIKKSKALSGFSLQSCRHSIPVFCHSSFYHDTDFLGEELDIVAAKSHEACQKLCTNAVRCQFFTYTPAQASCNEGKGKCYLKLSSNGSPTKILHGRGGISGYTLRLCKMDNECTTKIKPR

SMILES | IC50 (Human FXIa) | IC50 (Human KLK1) | IC50 (Human plasma kallikrein)
COCc1nn(Cc2ccc3c(c2)CN(C)CC3)cc1C(=O)NCc1c(-n2ncnc2C)ccc(OC)c1F [Example 12, N-{[2-fluoro-3-methoxy-6-(5-methyl-1,2,4-triazol-1-yl)phenyl]methyl}-3-(methoxymethyl)-1-[(2-methyl-3,4-dihydro-1H-isoquinolin-7-yl)methyl]pyrazole-4-carboxamide] | > 40 µM | > 40 µM | < 0.01 µM
COc1ccc(-n2cc(C)nn2)c(CNC(=O)c2cnn(Cc3ccc4c(c3)CN(C)CC4)c2)c1F [Example 3, N-{[2-fluoro-3-methoxy-6-(4-methyl-1,2,3-triazol-1-yl)phenyl]methyl}-1-[(2-methyl-3,4-dihydro-1H-isoquinolin-7-yl)methyl]pyrazole-4-carboxamide] | > 40 µM | > 40 µM | < 0.01 µM
COCc1nn(Cc2ccc3c(c2)CCN(C2CC2)C3)cc1C(=O)NCc1c(-n2cnc(C(F)F)n2)ccc(OC)c1F [Example 47, 1-[(2-cyclopropyl-3,4-dihydro-1H-isoquinolin-6-yl)methyl]-N-({6-[3-(difluoromethyl)-1,2,4-triazol-1-yl]-2-fluoro-3-methoxyphenyl}methyl)-3-(methoxymethyl)pyrazole-4-carboxamide] | > 40 µM | > 40 µM | 0.03 to 0.1 µM
COCc1nn(Cc2ccc3c(c2F)CCN(C)C3)cc1C(=O)NCc1c(-n2cc(C)nn2)ccc(OC)c1F [Example 114, 1-[(5-fluoro-2-methyl-3,4-dihydro-1H-isoquinolin-6-yl)methyl]-N-{[2-fluoro-3-methoxy-6-(4-methyl-1,2,3-triazol-1-yl)phenyl]methyl}-3-(methoxymethyl)pyrazole-4-carboxamide] | > 40 µM | > 40 µM | 0.01 to 0.03 µM
COCc1nn(Cc2ccc3c(c2)C(C)(C)N(C)C3)cc1C(=O)NCc1c(-n2cc(C)nn2)ccc(OC)c1F [Example 124, N-{[2-fluoro-3-methoxy-6-(4-methyl-1,2,3-triazol-1-yl)phenyl]methyl}-3-(methoxymethyl)-1-[(2,3,3-trimethyl-1H-isoindol-5-yl)methyl]pyrazole-4-carboxamide] | > 40 µM | > 40 µM | 0.03 to 0.1 µM
COCc1nn(Cc2ccc3c(c2)CNCCO3)cc1C(=O)NCc1c(-n2cc(C)nn2)ccc(OC)c1F [Example 110, N-{[2-fluoro-3-methoxy-6-(4-methyl-1,2,3-triazol-1-yl)phenyl]methyl}-3-(methoxymethyl)-1-(2,3,4,5-tetrahydro-1,4-benzoxazepin-7-ylmethyl)pyrazole-4-carboxamide] | > 40 µM | > 40 µM | 0.1 to 1 µM
COCc1nn(Cc2ccc3c(c2)CN(C(C)C)C3)cc1C(=O)NCc1c(-n2cnc(C(F)F)n2)ccc(OC)c1F [Example 59, N-({6-[3-(difluoromethyl)-1,2,4-triazol-1-yl]-2-fluoro-3-methoxyphenyl}methyl)-1-[(2-isopropyl-1,3-dihydroisoindol-5-yl)methyl]-3-(methoxymethyl)pyrazole-4-carboxamide] | > 40 µM | > 40 µM | < 0.01 µM
COCc1nn(Cc2ccc3c(c2)C2CCCN2CC3)cc1C(=O)NCc1c(-n2cc(C)nn2)ccc(OC)c1F (stereo not drawn) [Example 120, 1-{1H,2H,3H,5H,6H,10bH-pyrrolo[2,1-a]isoquinolin-9-ylmethyl}-N-{[2-fluoro-3-methoxy-6-(4-methyl-1,2,3-triazol-1-yl)phenyl]methyl}-3-(methoxymethyl)pyrazole-4-carboxamide] | > 40 µM | > 40 µM | < 0.01 µM
COCc1nn(Cc2ccc3c(c2)CCN(C)CC3)cc1C(=O)NCc1c(-n2cnc(C(F)(F)F)n2)ccc(OC)c1F [Example 158, N-({2-fluoro-3-methoxy-6-[3-(trifluoromethyl)-1,2,4-triazol-1-yl]phenyl}methyl)-3-(methoxymethyl)-1-[(3-methyl-1,2,4,5-tetrahydro-3-benzazepin-7-yl)methyl]pyrazole-4-carboxamide] | > 40 µM | > 40 µM | < 0.01 µM
COCc1nn(Cc2ccc3c(c2)CN(C)CC3)cc1C(=O)NCc1c(-n2cnc(C(F)F)n2)ccc(Cl)c1F [Example 155, N-({3-chloro-6-[3-(difluoromethyl)-1,2,4-triazol-1-yl]-2-fluorophenyl}methyl)-3-(methoxymethyl)-1-[(2-methyl-3,4-dihydro-1H-isoquinolin-7-yl)methyl]pyrazole-4-carboxamide] | > 40 µM | > 40 µM | 0.1 to 1 µM
COCc1nn(Cc2ccc3c(c2)CN(C(C)C)CC3)cc1C(=O)NCc1c(-n2cc(C)nn2)ccc(OC)c1F [Example 17, N-{[2-fluoro-3-methoxy-6-(4-methyl-1,2,3-triazol-1-yl)phenyl]methyl}-1-[(2-isopropyl-3,4-dihydro-1H-isoquinolin-7-yl)methyl]-3-(methoxymethyl)pyrazole-4-carboxamide] | > 40 µM | > 40 µM | < 0.01 µM
COCc1nn(Cc2cc(F)c3c(c2)CCN(C)C3)cc1C(=O)NCc1c(-n2cc(C)nn2)ccc(OC)c1F [Example 116, 1-[(8-fluoro-2-methyl-3,4-dihydro-1H-isoquinolin-6-yl)methyl]-N-{[2-fluoro-3-methoxy-6-(4-methyl-1,2,3-triazol-1-yl)phenyl]methyl}-3-(methoxymethyl)pyrazole-4-carboxamide] | > 4 µM | > 4 µM | < 0.01 µM

Continued, values first:

IC50 (Human FXIa) | IC50 (Human KLK1) | IC50 (Human plasma kallikrein) | SMILES
> 4 µM | > 4 µM | 0.03 to 0.1 µM | COCc1nn(Cc2ccc3c(c2)CNC3)cc1C(=O)NCc1c(-n2cc(C)nn2)ccc(OC)c1F [Example 53, 1-(2,3-dihydro-1H-isoindol-5-ylmethyl)-N-{[2-fluoro-3-methoxy-6-(4-methyl-1,2,3-triazol-1-yl)phenyl]methyl}-3-(methoxymethyl)pyrazole-4-carboxamide]
18.2 µM | > 40 µM | < 0.01 µM | COc1ccc(-n2cc(C)nn2)c(CNC(=O)c2cn(Cc3cc4n(n3)C3(CC3)CN(C)C4)nc2C(F)F)c1F [Example 82]
23.1 µM | > 40 µM | < 0.01 µM | COCc1nn(Cc2ccc3c(c2)CN(C)CC3(F)F)cc1C(=O)NCc1c(-n2cc(C)nn2)ccc(OC)c1F [Example 106, 1-[(4,4-difluoro-2-methyl-1,3-dihydroisoquinolin-7-yl)methyl]-N-{[2-fluoro-3-methoxy-6-(4-methyl-1,2,3-triazol-1-yl)phenyl]methyl}-3-(methoxymethyl)pyrazole-4-carboxamide]
17 µM | > 40 µM | < 0.01 µM | COCc1nn(Cc2ccc3c(c2)CN(C)C3)cc1C(=O)NCc1c(-n2cnc(C(F)(F)F)n2)ccc(OC)c1F [Example 58, N-({2-fluoro-3-methoxy-6-[3-(trifluoromethyl)-1,2,4-triazol-1-yl]phenyl}methyl)-3-(methoxymethyl)-1-[(2-methyl-1,3-dihydroisoindol-5-yl)methyl]pyrazole-4-carboxamide]
28.1 µM | > 40 µM | < 0.01 µM | COCc1nn(Cc2ccc3c(c2)CN(C2CC2)CC3)cc1C(=O)NCc1c(-n2cc(C)nn2)ccc(OC)c1F [Example 14, 1-[(2-cyclopropyl-3,4-dihydro-1H-isoquinolin-7-yl)methyl]-N-{[2-fluoro-3-methoxy-6-(4-methyl-1,2,3-triazol-1-yl)phenyl]methyl}-3-(methoxymethyl)pyrazole-4-carboxamide]
34.6 µM | > 40 µM | < 0.01 µM | COc1ccc(-n2cnc(C(F)(F)F)n2)c(CNC(=O)c2cnn(Cc3ccc4c(c3)CN(C)CC4)c2)c1F [Example 31, N-({2-fluoro-3-methoxy-6-[3-(trifluoromethyl)-1,2,4-triazol-1-yl]phenyl}methyl)-1-[(2-methyl-3,4-dihydro-1H-isoquinolin-7-yl)methyl]pyrazole-4-carboxamide]
34.2 µM | > 40 µM | < 0.01 µM | COCc1nn(Cc2cnc3c(c2)CCN(C)C3)cc1C(=O)NCc1c(-n2cc(C)nn2)ccc(OC)c1F [Example 102, N-{[2-fluoro-3-methoxy-6-(4-methyl-1,2,3-triazol-1-yl)phenyl]methyl}-3-(methoxymethyl)-1-[(7-methyl-6,8-dihydro-5H-1,7-naphthyridin-3-yl)methyl]pyrazole-4-carboxamide]
